The record followed here is EP4553077A1 (Kinoteck Therapeutics Co., Ltd, priority 2022, dated 2024).

The CLint scaled is the capacity of the preparation to metabolise the compound, expressed as a volume cleared per time. The AUC(0-t) is exposure summed from dosing to a finite time, without extrapolation to infinity. In general, Cmax refers to the maximum level reached in the sampled fluid or tissue. One may read the Tmax as the time at which the peak concentration occurs.

One data set deals with Ba/F3-TEL-FGFR3 (Homo sapiens, UniProt P22607+P41212). The data set can be described thus: Cell viability (proliferation inhibition) of Ba/F3 cells, CellTiter Glo. The following applies: read-out: Ba/F3 cell FGFR3 (IC50 nM), 72 h. On the technique in general: ATP-based viability assays read luminescence as a measure of living cells.
Sequence of Ba/F3-TEL-FGFR3 (P22607 472-761 limits assumed, one chain of several): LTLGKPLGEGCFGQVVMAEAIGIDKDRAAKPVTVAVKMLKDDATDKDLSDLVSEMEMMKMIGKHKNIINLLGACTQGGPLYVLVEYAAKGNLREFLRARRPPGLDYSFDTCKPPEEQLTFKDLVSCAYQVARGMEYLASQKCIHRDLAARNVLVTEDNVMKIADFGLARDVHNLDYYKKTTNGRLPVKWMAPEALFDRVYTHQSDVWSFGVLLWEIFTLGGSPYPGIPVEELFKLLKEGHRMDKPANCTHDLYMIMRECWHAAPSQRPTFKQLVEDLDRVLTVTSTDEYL
The next data set has as its target Ba/F3-TEL-FGFR2 (Homo sapiens, UniProt P21802+P41212). The data set is described as above. The following applies: read-out: Ba/F3 cell FGFR2 (IC50 nM), 72 h.
The next data set deals with Ba/F3-TEL-FGFR1 (Homo sapiens, UniProt P11362+P41212). Described as above. The following applies: read-out: Ba/F3 cell FGFR1 (IC50 nM), 72 h.
Sequence of Ba/F3-TEL-FGFR1 (P11362 478-767 limits assumed, one chain of several): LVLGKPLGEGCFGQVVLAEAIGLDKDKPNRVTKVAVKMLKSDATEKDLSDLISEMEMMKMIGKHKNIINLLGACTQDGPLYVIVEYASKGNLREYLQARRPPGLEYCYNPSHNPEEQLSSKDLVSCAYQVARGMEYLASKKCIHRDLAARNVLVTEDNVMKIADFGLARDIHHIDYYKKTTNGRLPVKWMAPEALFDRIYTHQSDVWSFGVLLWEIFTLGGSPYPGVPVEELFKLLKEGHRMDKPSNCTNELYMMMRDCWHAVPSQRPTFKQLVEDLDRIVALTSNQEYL
The nature of data set [1]: Human liver microsomes stability test. The data set is classed as in vitro ADME. The note with it: human liver microsomes 0.5 mg/mL, compound 1.0 µM. How it is done:
Human liver microsomes stability test was performed by co-incubating compounds with human liver microsomes in vitro. Firstly, a 10 mM stock solution of the test compound in DMSO solvent was prepared, and then the compound was diluted with methanol to a 0.15 mM working solution. A certain amount PBS, 12mM MgCl2, human liver microsomes (Corning), and compound working solution were mixed to achieve a compound concentration of 1.0 µM, a human liver microsome concentration of 0.5 mg/mL, and the MgCl2 concentration of 3 mM in the reaction system. A deep well plate was taken, 270 µL microsomal buffer mixture solution was added to each well, and then 30 µL preheated 10 mM NADPH solution was added to initiate the reaction, and it was incubated at 37 °C. At 0, 5, 15, 30, and 60 min of incubation, 200 µL methanol: acetonitrile = 1: 1 containing an internal standard was added to the corresponding well to terminate the reaction. After the reaction was terminated at the last 60 min, the deep well plate was subjected to vortex vibration for 5 min (600 rpm/min), and then centrifugated for 10 min. After centrifugation, the supernatant was taken, and purified water was added at a 1:1 ratio for LC-MS/MS detection, and the peak area ratio of the compound to the internal standard at each time point was obtained, and the peak area ratio of the compound at 5, 15, 30, and 60 min was compared with the peak area ratio at 0 minute to calculate the remaining percentage of the compound at each time point, and T1/2 was calculated using Graphpad 7 software. Table 2 Results of human liver microsomes stability test
On the technique in general: Liver microsomes are a subcellular fraction often used to study metabolism.

Another data set concerns the target CYP3A4 (Homo sapiens, UniProt P08684). The data set can be described thus: Cytochrome P450 inhibition in human liver microsomes.
A further data set has as its target CYP2D6 (Homo sapiens, UniProt P10635). Described as above.
The next data set relates to SNU16 cells. The data set can be described thus: Proliferation inhibition, CCK-8 colorimetric method. Format: cell-based. The protocol: (§1) CCK-8 (Bimake/B34304) colorimetric method was used to detect the in vitro proliferation inhibitory effect of compounds on suspended or adherent cells in this experiment. The specific experimental steps were as follows: • 1) Cell plating: SNU16 and A204 tumor cells (cells from Shanghai Institute of Organic Chemistry, Chinese Academy of Sciences) in the logarithmic growth phase were digested and centrifuged for trypan blue counting, and the cells were seeded into a transparent 96 well plate at a density of 4000 cells/100 µ 1/well. […] The test compound and control compound stock solution were diluted with the corresponding culture medium required for cell culture (with or without solvent DMSO) to obtain a series of working solutions, with concentrations of twice the final concentration. The solvent DMSO contents in each concentration group were consistent with that of the solvent control group. The final concentration of A204 cells started at 10 µM and was diluted twice.
(§2) Calculation of cell survival rate: Cell survival rate (%)=[(As-Ac)/(Ab-Ac)] × 100%] (As: experimental well; Ab: Solvent control well; Ac: Blank well).

Another data set has as its system A204 cells. The description is as above. The data set is classed as cell-based. The note with it: 72 h. How it is done:
as §1, §2

Data set [2] is described as follows: Rat liver cells metabolic stability. The note with it: rat liver cells 0.5 × 10^6 cells/mL. The data set is classed as in vitro ADME. The protocol: Test compound and control drug verapamil powder were prepared into […] stock solution using DMSO, and they were diluted with 50% acetonitrile/50% water to 100 µM working solution before use.
• 1) 49.5 mL Williams E Medium and 0.5 mL glutaMAX were mixed as incubation medium. The liver cell resuscitation solution and incubation solution were preheated in a 37 °C water bath for at least 15 min before use. • 2) A tube of liver cells stored at ultra-low temperature was taken and ensured that they remain in a low-temperature frozen state before resuscitation. The liver cells were placed quickly in a 37 °C water bath and shaken gently until all ice crystals were dispersed. • 3) The contents of the liver cells tubes were poured into a centrifuge tube containing 50 mL of resuscitation medium, and they were centrifuged at 100 g for 10 min. After centrifugation, the resuscitation medium was aspirated, and sufficient incubation medium was added to obtain a cell suspension with a cell density of approximately 1.0 × 10^6 cells/mL. • 4) AO/PI staining was used to count liver cells and determine viable cell density, the survival rate of liver cells must be greater than 75%. The liver cell suspension was diluted with incubation medium to a viable cell density of 0.5 × 10^6 cells/mL.
• 1) 198 µL live cell suspension was transferred to a 96 well deep well plate, and the deep well plate was placed on a vortex and preheat in the incubator for 10 min. • 2) 2 µL 100 µM test compound or positive control compound was added to each well for reaction initiation, and the deep well plate was placed back on the incubator vortex. • 3) The incubation plate was placed into the incubator for incubation. 25 µL suspension was taken at 0.5, 15, 30, 60, 90, and 120 min, and 6-fold (150 µL) acetonitrile containing internal standard quencher (100 nM alprazolam, 200 nM caffeine, and 100 nM toluenesulfonylbutamide) was added to a new 96 well plate to terminate the reaction. The plate was vortexed for 5 min and centrifuged at 3220 rpm and 4 °C for 45 min to precipitate the protein. 100 µL of supernatant was transferred to the sample plate, and 100 µL pure water was added and mixed well for UPLC-MS/MS analysis. All incubation systems were conducted in a dual parallel manner.
All data was calculated using Microsoft Excel software. Peak area was detected by extracting ion chromatogram. In vitro half-life (T1/2) and in vitro clearance rate (in µL/min/10^6 cells) of the parent drug were detected by linearly fitting of the natural logarithm of the […] percentage of the parent drug versus time. Table 6 Results of rat liver cell stability test

Data set [3] can be described thus: Pharmacokinetic test in rats. The data set is classed as in vivo, male SD rats. The note with it: male, SD, rat, plasma, oral gavage administration, 10 mg/kg. The protocol:
Rat pharmacokinetic experiments were performed using male SD rats, 180-220g, provided by Beijing Vital River Laboratory Animal Technology Co., Ltd. 3 rats that were fasted overnight were taken, and administered orally by gavage (10 mg/kg). Blood samples were collected before administration, as well as 5, 15, 30 min and 1, 2, 4, 6, 8, 24 h after administration; another 3 rats were taken and administered intravenously (1 mg/kg), blood samples were collected before administration, as well as 5, 15, 30 min and 1, 2, 4, 6, 8, 24 h after administration. Blood sample was centrifuged at 6800g, 2-8 °C for 6 min, and plasma was collected, and stored at -80 °C. Plasma of each time point was taken, 10 times the amount of 50% methanol acetonitrile solution containing internal standard was added, and mixed by vortex for 5 min, centrifuged at 18000 rpm at 4 °C for 10 min, and the supernatant was taken directly for LC-MS/MS analysis. The main pharmacokinetic parameters were analyzed using WinNonlin8.2 software for non compartmental model analysis. Table 3: pharmacokinetic test in rats results of test compounds

Sequence of Ba/F3-TEL-FGFR2 (P21802 481-770 limits assumed, one chain of several): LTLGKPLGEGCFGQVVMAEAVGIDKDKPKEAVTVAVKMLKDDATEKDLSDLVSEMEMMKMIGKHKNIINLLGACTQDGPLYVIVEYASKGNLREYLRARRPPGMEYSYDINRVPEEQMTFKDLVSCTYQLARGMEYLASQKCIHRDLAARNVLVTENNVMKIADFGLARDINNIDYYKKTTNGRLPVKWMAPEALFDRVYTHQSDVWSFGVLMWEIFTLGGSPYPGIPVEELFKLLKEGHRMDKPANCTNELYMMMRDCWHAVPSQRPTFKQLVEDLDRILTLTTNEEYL
Sequence of CYP3A4 (P08684 whole entry): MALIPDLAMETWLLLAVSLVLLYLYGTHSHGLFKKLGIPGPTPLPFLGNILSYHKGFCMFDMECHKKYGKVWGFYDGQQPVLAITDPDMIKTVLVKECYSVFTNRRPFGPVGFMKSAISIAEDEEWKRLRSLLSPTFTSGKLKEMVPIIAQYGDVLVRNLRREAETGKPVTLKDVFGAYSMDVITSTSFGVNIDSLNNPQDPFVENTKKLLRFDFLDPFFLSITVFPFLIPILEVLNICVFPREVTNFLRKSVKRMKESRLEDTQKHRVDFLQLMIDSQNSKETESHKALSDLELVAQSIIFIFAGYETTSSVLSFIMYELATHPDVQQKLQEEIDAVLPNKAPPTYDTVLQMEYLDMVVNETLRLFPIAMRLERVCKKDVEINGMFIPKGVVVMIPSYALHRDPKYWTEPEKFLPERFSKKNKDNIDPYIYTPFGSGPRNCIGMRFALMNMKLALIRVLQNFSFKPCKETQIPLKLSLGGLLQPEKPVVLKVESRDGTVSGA
Sequence of CYP2D6 (P10635 whole entry): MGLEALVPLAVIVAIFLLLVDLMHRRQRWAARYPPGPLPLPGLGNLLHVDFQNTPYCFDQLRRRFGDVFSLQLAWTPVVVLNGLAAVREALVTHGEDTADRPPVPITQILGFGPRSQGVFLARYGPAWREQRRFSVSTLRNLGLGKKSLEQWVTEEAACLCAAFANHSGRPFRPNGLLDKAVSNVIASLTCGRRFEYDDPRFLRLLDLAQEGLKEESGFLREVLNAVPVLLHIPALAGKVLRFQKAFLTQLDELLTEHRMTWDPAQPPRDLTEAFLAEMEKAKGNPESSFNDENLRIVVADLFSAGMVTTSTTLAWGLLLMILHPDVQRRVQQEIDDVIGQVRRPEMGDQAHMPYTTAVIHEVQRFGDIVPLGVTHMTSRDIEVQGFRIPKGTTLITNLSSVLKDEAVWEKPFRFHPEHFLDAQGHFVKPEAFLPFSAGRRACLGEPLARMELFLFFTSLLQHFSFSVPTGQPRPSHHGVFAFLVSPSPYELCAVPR
Method for CYP2D6: (§3) Preparation of positive control inhibitor and compound working solution: 16 µL inhibitor stock solution or compound stock solution for each CYP subtype were taken and added to 24 µL DMSO. Then, they were diluted gradually three times with diluent to obtain different concentrations of test sample/positive control inhibitor working solution (7 concentrations each except for blank)
(§4) Preparation of liver microsomal working solution: 300 µL human liver microsomes (20.0 mg/mL) was taken and added to 29700 µL PBS and mixed well, and the concentration of the prepared human liver microsomal working solution was 0.200 mg/mL.
(§5) Preparation of 4 x NADPH working solution: A certain weight of NADPH tetrasodium salt was weighted and dissolved to a suitable volume of PBS to obtain NADPH working solution, with a concentration of 8.00 mM.
(§6) Preparation of test sample group working solution: The human liver microsomal working solution was divided into 96 well plates at 796 µL per well, and then 4 µL test sample working solution was added.
(§7) Preparation of positive control group working solution: The human liver microsomal working solution was divided into 96 well plates at 199 µL per well, and then 1 µL positive control inhibitor working solution was added.
(§8) Blank solvent working solution preparation: The human liver microsomal working solution was divided into 96 well plates at 199 µL per well, and then 1 µL DMSO was added.
(§9) (a) 30 µL test sample/positive control inhibitor working solution or 30 µL blank solvent working solution per well were transferred into a 96 well plate, and 15 µL substrate working solution of different enzyme subtypes transferred into each well, and mixed evenly. (b) The above incubation plates and 4 x NADPH working solution were preheated at 37 °C for 5 min. (c) 15 µL preheated 4 × NADPH working solution per well was transferred into the incubation plate, and the reaction initiated, and continued to be incubated at 37 °C. The incubation time is as follows:
(§10) (d) After the reaction time was reached, 180 µL termination solution was added to terminate the reaction. […] (f) After centrifugation, 80 µL supernatant was taken and added to 120 µL ultrapure water, and after it was mixed evenly, LC-MS/MS was used to analyze the metabolites of the probe substrate.
Method for CYP3A4: as §3, §4, §5, §6, §7, §8, §9, §10

For the compound `C=C(C)C(=O)Nc1ccc(-c2c(-c3ccc(N=S4(=O)CCCCC4)cc3)c3c(N)ncnc3n2C)cc1` [Compound 4, N-(4-(4-amino-7-methyl-5-(4-(1-oxotetrahydro-2H-1λ^6-thiopyran-1-imino)phenyl) -7H-pyrrolo [2,3-d]pyrimidin-6-yl)phenyl) methacrylamide], the IC50 was determined as 3360 nM at Ba/F3-TEL-FGFR3, 9.9 nM at Ba/F3-TEL-FGFR2 and 2370 nM on Ba/F3-TEL-FGFR1. This compound also registered an intrinsic metabolic clearance (CLint scaled) at 1 µM in data set [1] of 14.6 mL/min/kg. The half-life at 1 µM in data set [1] came out at 85.6 min. Further, in data set [1] (60 min), the “Remaining percentage of compound after 60 min of incubation (%)” value is recorded as 61.6%.

For `C=C(C)C(=O)Nc1ccc(-c2c(-c3ccc(N=S(=O)(CC)CC)c(F)c3)c3c(N)ncnc3n2C)cc1` [Compound 9, N-(4-(4-amino-5-(4-(diethyl (oxo) 1 λ^6-sulfanylidene) -3-fluorophenyl) -7-methyl 7H-pyrrolo [2,3-d]pyrimidin-6-yl) - phenyl) methacrylamide], the figures for the IC50 at CYP3A4, at Ba/F3-TEL-FGFR2 and at CYP2D6 were 13500 nM, 14.9 nM and 24600 nM, respectively.

As to `C=C(C)C(=O)Nc1ccc(-c2c(-c3ccc(N=S4(=O)CCCC4)c(F)c3)c3c(N)ncnc3n2C)c(F)c1` [Compound 23, N-(4-(4-amino-5-(3-fluoro-4-((1-oxotetrahydro-1 λ^6-thiophene-1-ylidene)amino)phenyl) -7-methyl-7H-pyrrolo [2,3-d]pyrimidin-6-yl) -3-fluorophenyl) methacrylamide], the IC50 in the data set with SNU16 cells (Homo sapiens, SNU-16, 72 h) was 2.4 nM; in the data set with A204 cells (Homo sapiens) it was 618 nM; at Ba/F3-TEL-FGFR2, 0.7 nM; at Ba/F3-TEL-FGFR1, 568 nM. In addition, the “Remaining percentage of compound after 60 min of incubation (%)” value in data set [2] (60 min) came to 24.45%. In addition, in data set [2] (rat liver cells (cryopreserved hepatocytes in suspension), read-out: in vitro CLint (µL/min/10^6 cells)), the hepatocyte CLint at 1 µM came to 48.4 µL/min/1e6 cells. For the same compound, in [2] (rat liver cells (cryopreserved hepatocytes in suspension), read-out: in vitro t1/2), the half-life at 1 µM was found to be 28.6 min.

Turning to `C=C(C)C(=O)Nc1ccc(-c2c(-c3ccc(N=S4(=O)CCCC4)c(F)c3)c3c(N)ncnc3n2C)c(C#N)c1` [Compound 26, N-(4-(4-amino-5-(3-fluoro-4-((1-oxotetrahydro-1 λ^6-thiophene-1-ylidene)amino)phenyl) -7-methyl-7H-pyrrolo [2,3-d]pyrimidin-6-yl) -3-cyanophenyl) methacrylamide], the IC50 with SNU16 cells (Homo sapiens, SNU-16, 72 h) came out at 3.36 nM; in the data set with A204 cells (Homo sapiens) it was 285 nM; at Ba/F3-TEL-FGFR3, 110 nM; at Ba/F3-TEL-FGFR2 it was 4.5 nM.

For the compound `C=C(C)C(=O)Nc1ccc(-c2c(-c3ccc(N=S4(=O)CCCC4)c(F)c3)c3c(N)ncnc3n2C)cc1` [Compound 33, N-(4-(4-amino-5-(3-fluoro-4-((1-oxotetrahydro-1 λ^6-thiophene-1-ylidene)amino)phenyl) -7-methyl-7H-pyrrolo [2,3-d]pyrimidin-6-yl)phenyl) methacrylamide], the IC50 was 19200 nM at CYP3A4; 1290 nM on Ba/F3-TEL-FGFR3; 11.2 nM at Ba/F3-TEL-FGFR2; 9520 nM against CYP2D6; 2310 nM on Ba/F3-TEL-FGFR1. Moreover, the exposure AUC(0-t) in [3] is 778 ng·h/mL. In data set [3], this compound displayed a Cmax of 306 ng/mL. In addition, the Tmax in data set [3] worked out at 25.2 min. This compound also gave a half-life in [3] of 79.2 min.

For `C=C(C)C(=O)Nc1ccc(-c2c(-c3ccc(N=S4(=O)CCC4)c(F)c3)c3c(N)ncnc3n2C)cc1` [Compound 56], the IC50 came to 13200 nM against CYP3A4, 12.6 nM at Ba/F3-TEL-FGFR2 and 5540 nM on CYP2D6.

With “N-(4-(4-amino-7-methyl-5-(4-(1-oxotetrahydro-2H-1λ^6-thiopyran-1- imino) phenyl) -7H-pyrrolo [2,3-d] pyrimidin-6-yl) -3-fluorophenyl) methacrylamide [Compound 1]”, the IC50 is 5.57 nM in the data set on SNU16 cells (72 h); 1310 nM with A204 cells; 869 nM at Ba/F3-TEL-FGFR3; 2.3 nM at Ba/F3-TEL-FGFR2; 656 nM at Ba/F3-TEL-FGFR1.
